Source: PubChem BioAssay (NCI)
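Dose response: 5 concentrations. Exposure: 48 h. Format: 96-well plates. Endpoint: linear interpolation; highest concentration if not reached. GI50 marks 50% less growth. TGI marks complete inhibition of growth.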

What was measured:
Test in all cases: DTP human tumour cell line panel, 48 h
SF-268 CNS = tested on: SF-268 CNS
HL-60(TB) leukemia = tested on: HL-60(TB) leukemia
OVCAR-4 ovarian = tested on: OVCAR-4 ovarian
MCF7 breast = tested on: MCF7 breast
HCT-15 colon = tested on: HCT-15 colon
SF-539 CNS = tested on: SF-539 CNS
SW-620 colon = tested on: SW-620 colon
SR leukemia = tested on: SR leukemia
SF-295 CNS = tested on: SF-295 CNS
PC-3 prostate = tested on: PC-3 prostate

| Compound | TGI (SF-268 CNS) [µM] | GI50 (HL-60(TB) leukemia) [µM] | TGI (OVCAR-4 ovarian) [µM] | TGI (MCF7 breast) [µM] | TGI (HCT-15 colon) [µM] | TGI (SF-539 CNS) [µM] | TGI (SW-620 colon) [µM] | TGI (SR leukemia) [µM] | TGI (SF-295 CNS) [µM] | TGI (PC-3 prostate) [µM] | TGI (HL-60(TB) leukemia) [µM] | GI50 (SF-268 CNS) [µM] | GI50 (OVCAR-4 ovarian) [µM] | GI50 (MCF7 breast) [µM] | GI50 (HCT-15 colon) [µM] | GI50 (SF-539 CNS) [µM] | GI50 (SW-620 colon) [µM] | GI50 (SR leukemia) [µM] | GI50 (SF-295 CNS) [µM] | GI50 (PC-3 prostate) [µM] |
| --- | --- | --- | --- | --- | --- | --- | --- | --- | --- | --- | --- | --- | --- | --- | --- | --- | --- | --- | --- | --- |
| CC(C)C1OC(=O)/C=C/C=C/C=C/C=C/C=C/CC(O)C(C)C(O)CC(O)CC(O)CC(O)CC(O)CC(O)CC(O)/C=C/C1C (stereo unspecified) | > 100 | 2.13 | > 100 | > 100 | > 100 | > 100 | > 100 | > 100 | > 100 | > 100 |  |  |  |  |  |  |  |  |  |  |
| CSCCC(NC(=O)OCc1ccccc1)P(=O)(O)c1ccccc1 (stereo unspecified) |  |  | > 100 | > 100 | > 100 |  | > 100 | > 100 | > 100 | > 100 | > 100 |  |  |  |  |  |  |  |  |  |
| CCOC(=O)C(=O)NCCCN1CCOCC1 | > 100 |  | > 100 |  | > 100 | > 100 | > 100 |  | > 100 |  | > 100 |  |  |  |  |  |  |  |  |  |
| CCCN1C(=O)CSC1=Nc1ccc2cc3ccc(N=C4SCC(=O)N4CCC)cc3nc2c1 | > 100 | > 100 | > 100 | > 100 | > 100 | > 100 | > 100 | > 100 | > 100 | > 100 | > 100 | 35.5 | 45.8 | 77.6 | > 100 | 59.2 | > 100 | 98.2 | 30 | 78.1 |
| C/C(N=Nc1nc2ccccc2[nH]1)=C1/C=CC=CN1O | > 100 |  | > 100 | > 100 | > 100 | > 100 | > 100 | > 100 | > 100 | > 100 |  |  |  |  |  |  |  |  |  |  |
| COC(=S)OC1CC(n2cnc3c(N)ncnc32)OC1CO[Si](C)(C)C(C)(C)C (stereo unspecified) |  |  | 44 | 44.8 | 49.8 |  | > 100 | > 100 | 34.6 | 44.1 | > 100 |  |  |  |  |  |  |  |  |  |
| O=C1CC2(CCC(O)(c3cccs3)C(C(=O)c3cccs3)C2)C(=O)c2ccccc2N1 (stereo unspecified) | > 100 |  |  | > 100 | > 100 | > 100 | > 100 | > 100 | > 100 | > 100 | > 100 |  |  |  |  |  |  |  |  |  |
| COC1CC(CC2CCC(C)C(C(C)C(=O)O)O2)OC2(OC(C)(C3CCC(C)(C4OC(C5OC(O)(CO)C(C)CC5C)CC4C)O3)CC2C)C1C (stereo unspecified) | 36.5 |  | 53.1 | > 27.9 | 29.1 | 10.3 | 17.9 | 1.54 | 11.6 | 49 | 1.1 |  |  |  |  |  |  |  |  |  |
